Literature values, collected in patent US20260284015A1, “DOSAGE REGIME OF CRINECERFONT FOR TREATING CONGENITAL ADRENAL HYPERPLASIA” (Neurocrine Biosciences, Inc., priority 2023, published 2026).

Conditions: glucocorticoid dose conversion factor relative to hydrocortisone

Compound | Hydrocortisone dose equivalent conversion [×]
C[C@@H]1C[C@H]2[C@@H]3CCC4=CC(=O)C=C[C@]4(C)[C@@]3(F)[C@@H](O)C[C@]2(C)[C@@]1(O)C(=O)CO [Dexamethasone] | 60
C[C@H]1C[C@@H]2[C@H]([C@@H](O)C[C@@]3(C)[C@H]2CC[C@]3(O)C(=O)CO)[C@@]2(C)C=CC(=O)C=C12 [Methylprednisolone] | 4
C[C@]12C=CC(=O)C=C1CC[C@@H]1[C@@H]2[C@@H](O)C[C@@]2(C)[C@H]1CC[C@]2(O)C(=O)CO [Prednisolone] | 4
